How the values were obtained:
COLO 205 = experiment: NCI anticancer screening, Colon Cancer COLO 205; assay type: cell-based; conditions: Homo sapiens; COLO 205, 10 μM; read-out: % Growth Inhibition (GI %)
Excerpt: (§1) The compound has been processed according to standard method NCI-60 Human Tumor Cell Lines Screen for organic compound at development therapeutic program (DTP). Requests for access to this national resource can be submitted online at: […]

CAKI-1 = experiment: NCI anticancer screening, Renal Cancer CAKI-1; assay type: cell-based; conditions: Homo sapiens; CAKI-1, 10 μM; read-out: % Growth Inhibition (GI %)
Excerpt: as §1

T-47D = experiment: NCI anticancer screening, Breast Cancer T-47D; assay type: cell-based; conditions: Homo sapiens, T47D, read-out: % Growth Inhibition (GI %)
Excerpt: as §1

SF-539 = experiment: NCI anticancer screening, CNS Cancer SF-539; assay type: cell-based; conditions: Homo sapiens; SF-539, 10 μM; read-out: % Growth Inhibition (GI %)
Excerpt: as §1

SK-MEL-2 = experiment: NCI anticancer screening, Melanoma SK-MEL-2; assay type: cell-based; conditions: Homo sapiens; SK-MEL-2, 10 μM; read-out: % Growth Inhibition (GI %)
Excerpt: as §1

RPMI-8226 = experiment: NCI anticancer screening, Leukemia RPMI-8226; assay type: cell-based; conditions: Homo sapiens; RPMI-8226, 10 μM; read-out: % Growth Inhibition (GI %)
Excerpt: as §1

SR = experiment: NCI anticancer screening, Leukemia SR; assay type: cell-based; conditions: Homo sapiens, read-out: % Growth Inhibition (GI %)
Excerpt: as §1

SK-OV-3 = experiment: NCI anticancer screening, Ovarian Cancer SK-OV-3; assay type: cell-based; conditions: Homo sapiens; SK-OV-3, 10 μM; read-out: % Growth Inhibition (GI %)
Excerpt: as §1

OVCAR-3 = experiment: NCI anticancer screening, Ovarian Cancer OVCAR-3; assay type: cell-based; conditions: Homo sapiens; OVCAR-3, 10 μM; read-out: % Growth Inhibition (GI %)
Excerpt: as §1

[1] = MTT cytotoxicity to normal human lung fibroblast Wi-38 cell line; assay type: cell-based; conditions: Wi-38 normal lung fibroblast cells, mean ± SEM, read-out: percentage of Wi-38 viability
Protocol: Normal human lung fibroblast Wi-38 cell line was used to detect cytotoxicity of the studied compounds (Table S8). Wi-38 cell line was cultured in DMEM medium-contained 10% fetal bovine serum (FBS), seeded as 5x10^3 cells per well in 96-well cell culture plate and incubated at 37 °C in 5% CO2 incubator. After 24 h for cell attachment, serial concentrations of the synthetic compounds were incubated with Wi-38 cells for 72 h. Cell viability was assayed by MTT method (Mosmann, 1983). Twenty microliters of 5 mg/ml MTT (Sigma, USA) was added to each well and the plate was incubated at 37 °C for 3 h. Then MTT solution was removed, 100 µl DMSO was added and the absorbance of each well was measured with a microplate reader (BMG LabTech, Germany) at 570 nm.

NCI-H226 = experiment: NCI anticancer screening, Non-Small Cell Lung Cancer NCI-H226; assay type: cell-based; conditions: Homo sapiens; NCI-H226, 10 μM; read-out: % Growth Inhibition (GI %)
Excerpt: as §1

[2] = biological target: T1, Mdm2 (residues 1–118 T47W) (Homo sapiens, UniProt Q00987, T47W); experiment: MDM2 binding by microscale thermophoresis (MST)
T1 construct: Mdm2 (residues 1–118 T47W; 500 nM)
T1 sequence (Q00987 1-118 T47W): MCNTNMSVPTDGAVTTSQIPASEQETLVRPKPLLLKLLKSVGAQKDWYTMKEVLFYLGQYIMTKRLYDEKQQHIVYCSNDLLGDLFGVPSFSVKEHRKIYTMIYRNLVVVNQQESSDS
Protocol: MST is a complementary biophysical assay to assess the binding of a small molecule to its receptor. […] Experiments were performed in 50 mM phosphate buffer at pH 7.4 containing 150 mM NaCl, 5 mM DTT, and 5% DMSO. […] Kd values and uncertainties were calculated using the MO Affinity Analysis software.

HOP-92 = experiment: NCI anticancer screening, Non-Small Cell Lung Cancer HOP-92; assay type: cell-based; conditions: Homo sapiens; HOP-92, 10 μM; read-out: % Growth Inhibition (GI %)
Excerpt: as §1

UACC-62 = experiment: NCI anticancer screening, Melanoma UACC-62; assay type: cell-based; conditions: Homo sapiens; UACC-62, 10 μM; read-out: % Growth Inhibition (GI %)
Excerpt: as §1

cyclin D = experiment: Real time PCR cyclin D gene expression in MDA-MB 231 cells; conditions: treated MDA-MB 231 cells compared to untreated cells
UO-31 = experiment: NCI anticancer screening, Renal Cancer UO-31; assay type: cell-based; conditions: Homo sapiens; UO-31, 10 μM; read-out: % Growth Inhibition (GI %)
Excerpt: as §1

MOLT-4 = experiment: NCI anticancer screening, Leukemia MOLT-4; assay type: cell-based; conditions: Homo sapiens; MOLT-4, 10 μM; read-out: % Growth Inhibition (GI %)
Excerpt: as §1

SNB-19 = experiment: NCI anticancer screening, CNS Cancer SNB-19; assay type: cell-based; conditions: Homo sapiens; SNB-19, 10 μM; read-out: % Growth Inhibition (GI %)
Excerpt: as §1

TK-10 = experiment: NCI anticancer screening, Renal Cancer TK-10; assay type: cell-based; conditions: Homo sapiens; TK-10, 10 μM; read-out: % Growth Inhibition (GI %)
Excerpt: as §1

NCI-H522 = experiment: NCI anticancer screening, Non-Small Cell Lung Cancer NCI-H522; assay type: cell-based; conditions: Homo sapiens; NCI-H522, 10 μM; read-out: % Growth Inhibition (GI %)
Excerpt: as §1

NCI-H460 = experiment: NCI anticancer screening, Non-Small Cell Lung Cancer NCI-H460; assay type: cell-based; conditions: Homo sapiens; NCI-H460, 10 μM; read-out: % Growth Inhibition (GI %)
Excerpt: as §1

EKVX = experiment: NCI anticancer screening, Non-Small Cell Lung Cancer EKVX; assay type: cell-based; conditions: Homo sapiens, read-out: % Growth Inhibition (GI %)
Excerpt: as §1

PC-3 cells = experiment: MTT assay anticancer activity, PC-3; assay type: cell-based; conditions: Homo sapiens, PC-3, 5 µM, mean ± SEM, read-out: growth inhibition percentage of PC-3
Excerpt: MTT method was done as described above.

UACC-257 = experiment: NCI anticancer screening, Melanoma UACC-257; assay type: cell-based; conditions: Homo sapiens; UACC-257, 10 μM; read-out: % Growth Inhibition (GI %)
Excerpt: as §1

A498 = experiment: NCI anticancer screening, Renal Cancer A498; assay type: cell-based; conditions: Homo sapiens; A498, 10 μM; read-out: % Growth Inhibition (GI %)
Excerpt: as §1

[3] = tested on: leukemia cells (CCRF-CEM; HL-60 (TB); K-562; MOLT-4; RPMI-8226, SR); experiment: NCI anticancer screening, leukemia subpanel; assay type: cell-based, human; conditions: smaller GI% than the other compounds
Excerpt: as §1

Row | Compound | inhibition at 10 µM (COLO 205) [%] | inhibition at 10 µM (CAKI-1) [%] | inhibition at 10 µM (T-47D) [%] | inhibition at 10 µM (SF-539) [%] | inhibition at 10 µM (SK-MEL-2) [%] | inhibition at 10 µM (RPMI-8226) [%] | inhibition at 10 µM (SR) [%] | inhibition at 10 µM (OVCAR-3) [%] | viability at 72 h, 5 µM [1] [%] | inhibition at 10 µM (HOP-92) [%] | inhibition at 10 µM (UACC-62) [%] | inhibition at 10 µM (UO-31) [%] | inhibition at 10 µM (MOLT-4) [%] | inhibition at 10 µM (SNB-19) [%] | inhibition at 10 µM (TK-10) [%] | inhibition at 10 µM (NCI-H522) [%] | inhibition at 10 µM (NCI-H460) [%] | inhibition at 10 µM (EKVX) [%] | inhibition at 5 µM (PC-3 cells) [%] | inhibition at 10 µM (UACC-257) [%] | further results
1 | O=C(c1nc2ccccc2[nH]1)[C@H]1[C@H](c2ccccc2)C2CSCN2[C@]12C(=O)Nc1ccccc12 (mixture of isomers) [Compound 6a, (3S,6′R)-6'-(1H-benzo [d]imidazole-2-carbonyl)-7′-phenyl-3′,6′,7′,7a′-tetrahydro-1′H-spiro [indoline-3.5′-pyrrolo [1,2-c]thiazol]-2-one] | 99.9 | 86 | 88 | 95.1 | 101 | 111 | 94.2 | 110 | > 81 | 95.5 | 95.7 | 77.2 | 100 | 97 | 110 | 93.7 | 106 | 106 | > 50 | 97.3 | inhibition at 10 µM (SK-OV-3): 99.1%; inhibition at 10 µM (NCI-H226): 95.3%; Kd [2]: 87.7 µM; expression level of cyclin D (cyclin D): downregulating
2 | O=C(c1nc2ccccc2[nH]1)[C@H]1[C@H](c2cccs2)C2CSCN2[C@]12C(=O)Nc1ccccc12 (stereo partly drawn) [Compound 6e, (3S,6′R)-6'-(1H-Benzo [d]imidazole-2-carbonyl)-7'-(thiophen-2-yl)-3′,6′,7′,7a′-tetrahydro-1′H-spiro [indoline-3.5′-pyrrolo [1,2-c]thiazol]-2-one] | 112 | 89.6 | 90.5 | 101 | 111 | 101 | 101 | 105 | 51.7 ± 1.28 | 105 | 90.8 | 76 | 96.1 | 104 | 106 | 91.5 | 101 | 100 | 58.2 ± 0.729 | 93.4 | inhibition at 10 µM (A498): 79.7%; inhibition at 10 µM (SK-OV-3): 101%; Kd [2]: 113 µM
3 | O=C(c1nc2ccccc2[nH]1)[C@H]1[C@H](c2ccc(F)cc2)C2CSCN2[C@]12C(=O)Nc1ccccc12 (stereo partly drawn) [Compound 6f, (3S,6′R)-6'-(1H-Benzo [d]imidazole-2-carbonyl)-7'-(4-fluorophenyl)-3′,6′,7′,7a′-tetrahydro-1′H-spiro [indoline-3.5′-pyrrolo [1,2-c]thiazol]-2-one] | 109 | 90 | 84.1 | 97.7 | 102 | 87.8 | 81.3 | 101 | 47.39 ± 0.092 | 112 | 78.1 | 77 | 83.6 | 95.9 | 101 | 79.5 | 88.9 | 93.8 | 46 ± 0.833 | 83.9 | inhibition at 10 µM (A498): 57.2%; inhibition at 10 µM (SK-OV-3): 102%
4 | O=C(c1nc2ccccc2[nH]1)[C@H]1[C@H](c2ccc(Cl)cc2Cl)C2CSCN2[C@]12C(=O)Nc1ccccc12 (stereo partly drawn) [Compound 6g, (3S,6′R)-6'-(1H-Benzo [d]imidazole-2-carbonyl)-7'-(2,4-dichlorophenyl)-3′,6′,7′,7a′-tetrahydro-1′H-spiro [indoline-3.5′-pyrrolo [1,2-c]thiazol]-2-one] | – | 36.9 | 54.4 | 76.4 | 84.4 | 42.5 | 45.8 | 69.7 | 40 ± 1.1 | 77.6 | 57 | 39.7 | 43 | 70.1 | 107 | 71.7 | 55.5 | 63.5 | 54.5 ± 1.56 | 74.4 | inhibition at 10 µM (NCI-H226): 61.8%; GI% for MOLT-4, RPMI-8226, and SR cancer cells [3]: 75%
5 | COc1cc([C@@H]2C3CSCN3[C@]3(C(=O)Nc4ccccc43)[C@H]2C(=O)c2nc3ccccc3[nH]2)cc(OC)c1OC (stereo partly drawn) [Compound 6i, (3S,6′R)-6'-(1H-Benzo [d]imidazole-2-carbonyl)-7'-(3,4,5-trimethoxyphenyl)-3′,6′,7′,7a′-tetrahydro-1′H-spiro [indoline-3.5′-pyrrolo [1,2-c]thiazol]-2-one] | 114 | 92.6 | 102 | 99.6 | 115 | 108 | 91.8 | 109 | 43.3 ± 0.917 | 106 | 87.4 | 86.6 | 97.4 | 100 | 104 | 88.3 | 105 | 100 | 49.8 ± 3.12 | 87.8 | inhibition at 10 µM (A498): 81.7%; inhibition at 10 µM (SK-OV-3): 102%
6 | O=C(c1nc2ccccc2[nH]1)[C@H]1[C@H](c2ccc(Br)cc2)C2CSCN2[C@]12C(=O)Nc1ccccc12 (stereo partly drawn) [Compound 6l, (3S,6′R)-6'-(1H-Benzo [d]imidazole-2-carbonyl)-7'-(4-bromophenyl)-3′,6′,7′,7a′-tetrahydro-1′H-spiro [indoline-3.5′-pyrrolo [1,2-c]thiazol]-2-one] | – | 60.3 | 54.7 | 82.4 | 107 | 61.3 | 54.1 | 79.8 | 37.4 ± 2.02 | 96.9 | 70.5 | 48.6 | 56.3 | 67 | 145 | 91.2 | 66.2 | 68.8 | 55.1 ± 1.98 | 77.9 | inhibition at 10 µM (NCI-H226): 74.8%; Kd [2]: 49.9 µM; GI% for MOLT-4, RPMI-8226, and SR cancer cells [3]: 75%

— article PMC11033320, “Activation of p53 signaling and regression of breast and prostate carcinoma cells by spirooxindole-benzimidazole small molecules” (Frontiers in Pharmacology, 2024)
